According to patent publication US11331299B2, “Medicinal use of serrulatane diterpenes” (The University of Sydney, priority 2016, dated 2022):
Like-named read-outs stand apart in the source and are kept apart here.

Test system: 280 human cancer cell lines
Assay: OncoPanel cell proliferation assay (10-day)
Assay type: cell-based
Conditions: Homo sapiens; for IC50: read-out: Cell Count IC50; for EC50: read-out: Cell Count EC50; for GI50: read-out: Cell Count GI50
[1] = SJRH30, SJRH30, Soft Tissue - Sarcoma
[2] = SJSA-1, SJSA1, Soft Tissue - Osteosarcoma
[3] = SK-LMS-1, SK-LMS-1, Soft Tissue - Sarcoma
[4] = SK-MEL3, SK-MEL-3, Skin (Melanoma)
[5] = SK-MEL-1, SK-MEL-1, Skin (Melanoma)
[6] = SK-MEL-28, SK-MEL-28, Skin (Melanoma)
[7] = SK-OV-3, SKOV3, Female GU - Ovary
[8] = SK-UT-1, SK-UT-1, Soft Tissue - Sarcoma
[9] = SW579, SW579, Endocrine - Thyroid
[10] = SW684, SW684, Soft Tissue - Sarcoma

SMILES: CC(C)=CCC[C@H](C)[C@@H]1CC[C@@H](C)c2c1cc(C)c(O)c2O [Compound 4, 7,8-dihydroxyserrulat-14-ene]
- IC50 (SCaBER, Bladder): 16.9 µM
- EC50 (SH-4, Skin (Melanoma)): 11.6 µM
- GI50 (SH-4, Skin (Melanoma)): 11.5 µM
- IC50 (SH-4, Skin (Melanoma)): 11.6 µM
- EC50 (SHP77, SHP-77, Lung - SCLC): 6.83 µM
- GI50 (SHP77, SHP-77, Lung - SCLC): 6.75 µM
- IC50 (SHP77, SHP-77, Lung - SCLC): 6.83 µM
- EC50 [1]: 3.68 µM
- GI50 [1]: 3.68 µM
- IC50 [1]: 3.68 µM
- EC50 [2]: 7.45 µM
- GI50 [2]: 7.45 µM
- IC50 [2]: 7.45 µM
- EC50 (SK-BR-3, SK-BR-3, Breast): 10.3 µM
- GI50 (SK-BR-3, SK-BR-3, Breast): 9.97 µM
- IC50 (SK-BR-3, SK-BR-3, Breast): 10.3 µM
- EC50 [3]: 9.04 µM
- GI50 [3]: 8.98 µM
- IC50 [3]: 9.04 µM
- EC50 [4]: > 30 µM
- GI50 [4]: > 30 µM
- IC50 [4]: > 30 µM
- EC50 [5]: > 30 µM
- GI50 [5]: > 30 µM
- IC50 [5]: > 30 µM
- EC50 [6]: 11.2 µM
- GI50 [6]: 11.1 µM
- IC50 [6]: 11.2 µM
- EC50 (SK-MES-1, SKMES1, Lung - NSCLC): 11.6 µM
- GI50 (SK-MES-1, SKMES1, Lung - NSCLC): 11.5 µM
- IC50 (SK-MES-1, SKMES1, Lung - NSCLC): 11.6 µM
- EC50 (SK-N-AS, CNS - Neuroblastoma): 5.86 µM
- GI50 (SK-N-AS, CNS - Neuroblastoma): 5.75 µM
- IC50 (SK-N-AS, CNS - Neuroblastoma): 5.86 µM
- EC50 (SK-N-DZ, CNS - Neuroblastoma): 11.9 µM
- GI50 (SK-N-DZ, CNS - Neuroblastoma): 11.5 µM
- IC50 (SK-N-DZ, CNS - Neuroblastoma): 11.9 µM
- EC50 (SK-N-FI, CNS - Neuroblastoma): 21.5 µM
- GI50 (SK-N-FI, CNS - Neuroblastoma): 20.6 µM
- IC50 (SK-N-FI, CNS - Neuroblastoma): 21.5 µM
- EC50 [7]: 8.43 µM
- GI50 [7]: 8.33 µM
- IC50 [7]: 8.43 µM
- EC50 (SK-PN-DW, Stomach): 4.91 µM
- GI50 (SK-PN-DW, Stomach): 4.88 µM
- IC50 (SK-PN-DW, Stomach): 4.91 µM
- EC50 [8]: 5.49 µM
- GI50 [8]: 5.46 µM
- IC50 [8]: 5.49 µM
- EC50 (SKO-007, SKO-007, Myeloma): 4.66 µM
- GI50 (SKO-007, SKO-007, Myeloma): 4.55 µM
- IC50 (SKO-007, SKO-007, Myeloma): 4.71 µM
- EC50 (SNB-19, SNB-19, CNS - Glioma): 13 µM
- GI50 (SNB-19, SNB-19, CNS - Glioma): 12.9 µM
- IC50 (SNB-19, SNB-19, CNS - Glioma): 13 µM
- EC50 (SNU1, SNU-1, Stomach): 6.99 µM
- GI50 (SNU1, SNU-1, Stomach): 6.98 µM
- IC50 (SNU1, SNU-1, Stomach): 6.99 µM
- EC50 (SNU-5, SNU-5, Stomach): 14.4 µM
- GI50 (SNU-5, SNU-5, Stomach): 14.2 µM
- IC50 (SNU-5, SNU-5, Stomach): 14.4 µM
- EC50 (SNU-16, SNU-16, Stomach): 11 µM
- GI50 (SNU-16, SNU-16, Stomach): 11 µM
- IC50 (SNU-16, SNU-16, Stomach): 11 µM
- EC50 (SNU-423, SNU-423, Liver): 9.3 µM
- GI50 (SNU-423, SNU-423, Liver): 9.28 µM
- IC50 (SNU-423, SNU-423, Liver): 9.31 µM
- EC50 (SR, Lymphoma): 4.39 µM
- GI50 (SR, Lymphoma): 4.39 µM
- IC50 (SR, Lymphoma): 4.39 µM
- EC50 (ST486, ST486, Lymphoma): 2.66 µM
- GI50 (ST486, ST486, Lymphoma): 2.65 µM
- IC50 (ST486, ST486, Lymphoma): 2.66 µM
- EC50 (SU-DHL10, SU-DHL-10, Lymphoma): 7.68 µM
- GI50 (SU-DHL10, SU-DHL-10, Lymphoma): 7.67 µM
- IC50 (SU-DHL10, SU-DHL-10, Lymphoma): 7.68 µM
- EC50 (SU-DHL-4, SU-DHL-4, Lymphoma): 5.74 µM
- GI50 (SU-DHL-4, SU-DHL-4, Lymphoma): 5.74 µM
- IC50 (SU-DHL-4, SU-DHL-4, Lymphoma): 5.74 µM
- EC50 (SU-DHL-5, SU-DHL-5, Lymphoma): 3.8 µM
- GI50 (SU-DHL-5, SU-DHL-5, Lymphoma): 3.8 µM
- IC50 (SU-DHL-5, SU-DHL-5, Lymphoma): 3.8 µM
- EC50 (SU-DHL-8, SU-DHL-8, Lymphoma): 3.9 µM
- GI50 (SU-DHL-8, SU-DHL-8, Lymphoma): 3.9 µM
- IC50 (SU-DHL-8, SU-DHL-8, Lymphoma): 3.9 µM
- EC50 (SU.86.86, SU.86.86, Pancreas): > 30 µM
- GI50 (SU.86.86, SU.86.86, Pancreas): > 30 µM
- IC50 (SU.86.86, SU.86.86, Pancreas): > 30 µM
- EC50 (SUP-T1, SUP-T1, Lymphoma): 6.51 µM
- GI50 (SUP-T1, SUP-T1, Lymphoma): 6.49 µM
- IC50 (SUP-T1, SUP-T1, Lymphoma): 6.51 µM
- EC50 (SW48, SW48, Colon): 13 µM
- GI50 (SW48, SW48, Colon): 13 µM
- IC50 (SW48, SW48, Colon): 13 µM
- EC50 [9]: 11 µM
- GI50 [9]: 11 µM
- IC50 [9]: 11 µM
- EC50 [10]: > 30 µM
- GI50 [10]: > 30 µM
- IC50 [10]: > 30 µM
- EC50 (SW837, SW837, Colon): 18.9 µM
